Key:
[1] = Storage stability of solid CMPB at room temperature, purity by liquid chromatography; format: physicochemical
Protocol: Five grams of the crystalline CMPB obtained in Example 1 (purity: 100%) and 5 g of the amorphous CMPB obtained in Reference Example 1 (purity: 99.2%) were placed in respective test tubes. These test tubes were sealed and stored at room temperature (20 to 30° C.) for 1 month. The respective purities of the CMPB samples were then determined using liquid chromatography.
(§1) One gram of crystalline CMPB (purity: 97%) prepared by storing the crystalline CMPB of Example 1 for 20 days at room temperature (about 25° C.) and 1.244 g of amorphous CMPB (purity: 78%) prepared by storing the amorphous CMPB of Reference Example 1 for 20 days at room temperature (about 25° C.) were used as test samples. Each sample was placed in flasks and 10 ml dichloromethane was added to dissolve the sample. These flasks were sealed. The dichloromethane solutions of CMPB samples were stirred at room temperature (about 25° C.) and, after 3.5 hours and after 5 hours, subjected to liquid chromatography to measure the amounts of CMPB remaining in the solutions. The amounts of the remaining CMPB were compared with the amount of CMPB in the crystalline CMPB sample or the amount of CMPB in the amorphous CMPB sample, which were measured prior to the test.

[2] = Stability of CMPB in dichloromethane solution, remaining CMPB by liquid chromatography; format: physicochemical; conditions: stirred at room temperature (about 25° C.)
Protocol: as §1, with “The dichloromethane solutions of CMPB samples were stirred at room temperature (about 25° C.) and, after 3.5 hours and after 5 hours, subjected to liquid chromatography to measure the amounts of CMPB remaining in the solutions.” left out

[3] = sealed test tube, room temperature (20 to 30° C.), 1 month, initial purity 100% (crystalline), 99.2% (amorphous)
[4] = stored 20 days at room temperature (about 25° C.)

Structure (SMILES)	purity after storage [1, 3] [%]	purity after storage [1, 4] [%]	amount of CMPB remaining in dichloromethane solution relative to initial amount ([2]; after 3.5 hours)	amount of CMPB remaining in dichloromethane solution relative to initial amount ([2]; after 6 hours (so in the source)) [%]	amount of CMPB remaining in dichloromethane solution relative to initial amount ([2]; after 5 hours)
C[C@@]1(CCl)SC2CC(=O)N2[C@H]1C(=O)OC(c1ccccc1)c1ccccc1 (stereo partly drawn) [amorphous CMPB, 2β-chloromethyl-2α-methylpenam-3α-carboxylic acid benzhydryl ester]	67	78	86.8%	63.4	
C[C@@]1(CCl)SC2CC(=O)N2[C@H]1C(=O)OC(c1ccccc1)c1ccccc1 (stereo partly drawn) [crystalline CMPB, 2β-chloromethyl-2α-methylpenam-3α-carboxylic acid benzhydryl ester]	95	97	exactly the same as the initial amount		exactly the same as the initial amount

Source: patent publication US20060293516A1, “Penicillin crystal and process for producing the same” (priority 2003, published 2006)
